Assay results reported in patent US8680109B2, “Combination product comprising SRC kinase inhibitor AZDO530 and an antioestrogen or EGFR-TK-inhibitor” (AstraZeneca AB, priority 2004, dated 2014).

What was measured:
[1] = system: tamoxifen resistant MCF7 breast cancer cells; details: cited from earlier work
[2] = system: human and/or mouse carcinomas grown as tumours in athymic nude mice; experiment: Test (i) in vivo xenograft growth assays; details: AZD0530 used alone; oral once daily
Excerpt: (i) In Vivo Xenograft Growth Assays
This test measures the ability of combination product of the invention to inhibit the growth of human and/or mouse carcinomas grown as tumours in athymic nude mice. Suitable cancer cells for injection include human MCF7 breast cancer cells (obtainable from American Type Culture Collection, 10801 University Boulevard, Manassas, Va. 20110-2209; Cat. No. HTB-22), c-Src transfected mouse 3T3 fibroblast cancer cells (transfection with an activating mutant (Y530F) of human c-Src via a similar procedure to that described by Shalloway et al., Cell, 1987, 49, 65-73), human LoVo colorectal cancer cells (obtainable from European Collection of Cell Cultures, ECACC, CAMR, Salisbury, Wiltshire, SP4 0JG, UK; Cat. No. CCL 229), human CaLu-6 lung cancer cells (ATCC Cat. No. HTB-56) and human A549 NSCLC cancer cells (ATCC Cat. No. CCL185).
A total of about 1×10^6 human cancer cells in 0.1 ml of a 1:1 mixture of matrigel (Beckton Dickinson Catalogue No. 40234) and Eagle's Minimum Essential Medium (EMEM; Gibco Catalogue No 21090-022) were injected subcutaneously into a flank of each test mouse and the resultant tumours were allowed to grow for about 10 days. […] Tumour size was measured twice weekly using callipers and a theoretical volume was calculated. The effect on tumour growth was assessed.

[3] = system: MCF7 human breast cancer cells; experiment: Test (b) time lapse analysis of cell motility; type: cell-based
Method: (b) Time Lapse Analysis of Cell Motility
Cells were cultured in 6-well tissue-culture plates and allowed to reach log phase growth. Plates were transferred to the heated stage of an inverted microscope and cell cultures were overlaid with mineral oil to minimise pH changes in the medium during the cell motility analysis. Cell motility was recorded over a period of 6 hours using a video camera coupled to a time lapse video recording system. For quantitation of cell motility, images were captured at 10 minute intervals during video playback and the movement of at least 10 individual cells was tracked using Optimas image analysis software (Media Cybernetics UK, Finchampstead, Berkshire, GB). Cell movement was plotted as either cell position (x-position vs. y-position) or total distance migrated (μm) as a function of time. To determine the directional persistence of cell motility, paths of cells were plotted such that all paths start from the origin.

[4] = system: human tumour cell line A549; experiment: Test (h) in vitro microdroplet migration assay; type: cell-based; details: read-out: activity, Test (h) (migratory inhibitory IC50)
Method: (h) In Vitro Microdroplet Migration Assay
This assay determines the ability of a test compound (or combination of test compounds) to inhibit the migration of adherent mammalian cell lines, for example the human tumour cell line A549.
RPMI medium (Sigma) containing 10% FCS, 1% L-glutamine and 0.3% agarose (Difco Catalogue No. 0142-01) was warmed to 37° C. in a water bath. A stock 2% aqueous agar solution was autoclaved and stored at 42° C. An aliquot (1.5 ml) of the agar solution was added to RPMI medium (10 ml) immediately prior to its use. A549 cells (Accession No. ATCC CCL185) were suspended at a concentration of 2×10^7 cells/ml in the medium and maintained at a temperature of 37° C.
A droplet (2 μl) of the cell/agarose mixture was transferred by pipette into the centre of each well of a number of 96-well, flat bottomed non-tissue-culture-treated microtitre plate (Bibby Sterilin Catalogue No. 642000). The plates were placed briefly on ice to speed the gelling of the agarose-containing droplets. Aliquots (90 μl) of medium which had been cooled to 4° C. were transferred into each well, taking care not to disturb the microdroplets. Test compounds were diluted from a 10 mM stock solution in DMSO using RPMI medium as described above. […]
Migration was assessed visually and the distance of migration was measured back to the edge of the agar droplet. […]

'Tam-R' cells [5] = experiment: Test (e) cell invasion assay; type: cell-based; details: Homo sapiens, 72 h; read-out: IC50 versus 'Tam-R' cells, Test (e) cell invasion
Method: (§1) ‘Tam-R’ MCF7 breast cancer cells were maintained in phenol red-free RPMI medium supplemented with 5% charcoal-stripped, steroid-depleted foetal calf serum, antibiotics as above, glutamine (200 mM) and 4-hydroxytamoxifen (10^−7M in ethanol).
A modification of the method previously described by Hiscox et al. (Breast Cancer Research Treatment, 2000, 59, 245-254) was used to study the invasive nature of the breast cancer cells.
Transwell polycarbonate filter membrane inserts (6.5 mm diameter, 8 μm pore size from Costar Inc.) were placed in 24-well tissue-culture plates and were coated with Matrigel (0.4 μg/ml) at ambient temperature overnight in a sterile tissue culture hood. After rehydrating the wells with serum-free RPMI for 1 hour at 37° C., cells were seeded onto the membrane inserts at 5×10^4 cells/well with or without appropriate concentrations of inhibitor compounds (or combinations of inhibitor compounds) and 600 μl of culture medium was added such that the membrane inserts were immersed. The wells were cultured at 37° C. for 72 hours, after which the non-invasive cells and Matrigel were removed from the inside of the wells with a cotton swab. […] Cell invasion was quantified with a fluorescent microscope by viewing 5 separate fields per membrane at 2-fold magnification and counting the number of cells in each field. […]

'Tam-R' cells [6] = experiment: Test (d) fibronectin cell migration assay; type: cell-based; details: Homo sapiens, 20 h; read-out: IC50 versus 'Tam-R' cells, Test (d) fibronectin cell migration
Method: as §1
(d) Fibronectin Cell Migration Assay
The polycarbonate filter membranes of Transwell chambers (6.5 mm diameter, 8.0 μm pore size from Costar Inc., Cambridge, Mass., USA) were coated on the underside of the membrane with 50 μg/ml fibronectin in serum-free RPMI for 2 hours at 37° C. The polycarbonate membranes were rinsed once with PBS. Cells were harvested and resuspended at a concentration of 5×10^5 cells per ml in serum-free RPMI. Aliquots of cells (100 μl; 5×10^4 cells) were seeded into each well to which 500 μl of experimental medium had been added. In control experiments, cells were allowed to migrate toward the underside of the membrane for 20 hours. In test experiments, appropriate concentrations of inhibitor compounds (or combinations of inhibitor compounds) were added and cells were allowed to migrate toward the underside of the membrane for 20 hours. […] The number of migrating cells was counted at 20-fold magnification using an inverted microscope.

[7] = system: MCF7 human breast cancer cells; experiment: Test (f) cell attachment assay; type: cell-based
Method: (f) Cell Attachment Assay
The wells of a 96-well plate were coated with Matrigel (50 μg/well) and air-dried overnight in a sterile tissue culture hood. Cells growing in log phase were harvested and adjusted to a concentration of 2×10^5 cells per ml in culture medium containing appropriate concentrations of inhibitor compounds (or combinations of inhibitor compounds). Aliquots of cells (2×10^4 cells) were seeded into each well and the plate was incubated at 37° C. for 30 minutes. The wells were washed twice with PBS to remove unbound cells prior to the addition to each well of 150 μl of MTT solution (0.5 mg/ml in serum-free medium). Plates were incubated for a further 4 hours at 37° C. to allow the development of […] crystals within the cells. The MTT solution was removed from the wells and the dye was extracted at 4° C. overnight with 10% TX-100 solution. The absorbance was measured with a Titerteck Multiskan ELISA plate reader (Flow Laboratories, UK) equipped with a 540 nm filter. Cell attachment in response to the treatments was calculated as a percentage of the cells adhered in the control (untreated) wells.

[8] = system: MCF7 human breast cancer cells ('wild type', 'Tam-R', 'Tam/TKI-R'); experiment: Test (a) cell growth studies; type: cell-based; details: MCF7, 168 h
Excerpt: Various test methods have been described by Knowlden et al., Endocrinology, 2003, 144, 1032-1044 and include one or more of:— • (i) tamoxifen-responsive ‘wild type’ MCF7 human breast cancer cells; • (ii) an endocrine-insensitive variant of such MCF7 breast cancer cells that was designated ‘Tam-R’ (tamoxifen-resistant); and • (iii) a variant of such ‘TAM-R’ cells that was also insensitive to treatment with the EGFR TKI ZD1839 that was designated ‘Tam/TKI-R’.
Tamoxifen-responsive ‘wild type’ MCF7 breast cancer cells were routinely cultured in phenol red-free RPMI medium supplemented with 5% foetal calf serum plus penicillin (10 IU/ml), streptomycin (10 μg/ml) and fungizone (2.5 μg/ml). Cultures were maintained at 37° C. in a humidified atmosphere with 5% CO2. […]
Cell monolayers were grown for 7 days in serum growth factor free DCCM medium in the presence of increasing concentrations of the individual components of the above-mentioned combinations or with the combinations themselves. Cell population growth was evaluated by means of trypsin dispersion of the cell monolayers and cell number was measured using a Beckman Coulter counter (available from Beckman Coulter Limited, Luton, GB). […]

Row | IC50 [3] | IC50 [4] | IC50 ('Tam-R' cells [5]) | IC50 ('Tam-R' cells [6]) | IC50 [7] | IC50 [8] | SMILES | basal and TGFα stimulated growth [1] | activity (active dose), Test (i) xenograft growth [2]
1 |  |  |  |  |  |  | COc1cc2ncnc(Nc3ccc(F)c(Cl)c3)c2cc1OCCCN1CCOCC1 [ZD1839, N-(3-chloro-4-fluorophenyl)-7-methoxy-6-(3-morpholinopropoxy)quinazolin-4-amine] | could be inhibited | 
2 | 100 to 1000 nM | 100 to 5000 nM | ~100 nM | ~100 nM | 100 to 1000 nM | 100 to 5000 nM | CN1CCN(CCOc2cc(OC3CCOCC3)c3c(Nc4c(Cl)ccc5c4OCO5)ncnc3c2)CC1 [AZD0530, 4-(6-chloro-2,3-methylenedioxyanilino)-7-[2-(4-methylpiperazin-1-yl)ethoxy]-5-tetrahydropyran-4-yloxyquinazoline] |  | 1 to 200 mg/kg/day
